# According to ChEMBL document CHEMBL1909046, “DrugMatrix in vitro pharmacology data”:
# Molecular target: Sodium-dependent dopamine transporter (Homo sapiens, UniProt Q01959)
# Assay: DRUGMATRIX: Dopamine Transporter radioligand binding (ligand: [125I] RTI-55)
# Assay type: cell membranes, CHO-K1, Membrane
# Details: cho-k1; Not Active = under 50% inhibition at 10 µM
# Sequence of Sodium-dependent dopamine transporter (Q01959 whole entry): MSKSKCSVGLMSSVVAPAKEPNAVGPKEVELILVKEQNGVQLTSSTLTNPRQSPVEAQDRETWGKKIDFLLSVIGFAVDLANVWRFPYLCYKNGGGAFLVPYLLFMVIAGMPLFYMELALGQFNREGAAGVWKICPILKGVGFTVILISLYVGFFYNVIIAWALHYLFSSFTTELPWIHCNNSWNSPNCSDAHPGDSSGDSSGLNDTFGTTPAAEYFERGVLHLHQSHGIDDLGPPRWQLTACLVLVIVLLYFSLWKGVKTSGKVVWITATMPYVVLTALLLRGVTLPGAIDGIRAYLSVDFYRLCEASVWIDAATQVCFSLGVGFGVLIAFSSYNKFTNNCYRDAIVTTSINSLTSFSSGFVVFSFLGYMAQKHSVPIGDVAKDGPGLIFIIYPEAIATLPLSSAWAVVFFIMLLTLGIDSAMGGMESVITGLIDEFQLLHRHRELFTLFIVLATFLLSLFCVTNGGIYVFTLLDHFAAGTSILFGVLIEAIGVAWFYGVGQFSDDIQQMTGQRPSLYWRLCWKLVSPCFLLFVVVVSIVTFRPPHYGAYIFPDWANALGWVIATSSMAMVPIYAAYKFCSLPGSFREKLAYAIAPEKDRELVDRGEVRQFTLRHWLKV
row,SMILES,IC50
1,CN(Cc1ccc(C(C)(C)C)cc1)Cc1cccc2ccccc12 [BUTENAFINE],Not Active
2,Sc1ncnc2nc[nH]c12 [MERCAPTOPURINE ANHYDROUS],Not Active
3,Nc1nc2c(ncn2COCCO)c(=O)[nH]1 [ACYCLOVIR],Not Active
4,c1ccc2c(c1)c1cccc3ccc4cccc2c4c31 [BENZO[E]PYRENE],Not Active
5,O=C(O)CCCc1ccc(N(CCCl)CCCl)cc1 [CHLORAMBUCIL],Not Active
6,Cc1ccc(N(CC2=NCCN2)c2cccc(O)c2)cc1 [PHENTOLAMINE],Not Active
7,CC1(C)O[C@@H]2C[C@H]3[C@@H]4CCC5=CC(=O)CC[C@]5(C)[C@@]4(F)[C@@H](O)C[C@]3(C)[C@]2(C(=O)CCl)O1 [HALCINONIDE],Not Active
8,NC(=O)N1c2ccccc2CCc2ccccc21,Not Active
9,CC(C)C(Br)C(=O)NC(N)=O (stereo unspecified) [BROMISOVALUM],Not Active

# System: not listed separately
# Assay: DRUGMATRIX: Leukotriene, BLT (LTB4) radioligand binding (ligand: [3H]LTB4)
# Assay type: cell membranes, Membrane
# Details: u-937; Not Active = under 50% inhibition at 10 µM
SMILES,IC50,Ki
CN(Cc1ccc(C(C)(C)C)cc1)Cc1cccc2ccccc12 [BUTENAFINE],Not Active,Not Active
Sc1ncnc2nc[nH]c12 [MERCAPTOPURINE ANHYDROUS],Not Active,Not Active
Nc1nc2c(ncn2COCCO)c(=O)[nH]1 [ACYCLOVIR],Not Active,Not Active
c1ccc2c(c1)c1cccc3ccc4cccc2c4c31 [BENZO[E]PYRENE],Not Active,Not Active
O=C(O)CCCc1ccc(N(CCCl)CCCl)cc1 [CHLORAMBUCIL],Not Active,Not Active
Cc1ccc(N(CC2=NCCN2)c2cccc(O)c2)cc1 [PHENTOLAMINE],Not Active,Not Active
CC1(C)O[C@@H]2C[C@H]3[C@@H]4CCC5=CC(=O)CC[C@]5(C)[C@@]4(F)[C@@H](O)C[C@]3(C)[C@]2(C(=O)CCl)O1 [HALCINONIDE],Not Active,Not Active
NC(=O)N1c2ccccc2CCc2ccccc21,Not Active,Not Active
CC(C)C(Br)C(=O)NC(N)=O (stereo unspecified) [BROMISOVALUM],Not Active,Not Active

# System: not listed separately
# Assay: DRUGMATRIX: Nicotinic Acetylcholine radioligand binding (ligand: [125I] Epibatidine)
# Assay type: cell membranes, Membrane
# Details: imr-32; Not Active = under 50% inhibition at 10 µM
SMILES,IC50,Ki
CN(Cc1ccc(C(C)(C)C)cc1)Cc1cccc2ccccc12 [BUTENAFINE],Not Active,Not Active
Sc1ncnc2nc[nH]c12 [MERCAPTOPURINE ANHYDROUS],Not Active,Not Active
Nc1nc2c(ncn2COCCO)c(=O)[nH]1 [ACYCLOVIR],Not Active,Not Active
c1ccc2c(c1)c1cccc3ccc4cccc2c4c31 [BENZO[E]PYRENE],Not Active,Not Active
O=C(O)CCCc1ccc(N(CCCl)CCCl)cc1 [CHLORAMBUCIL],Not Active,Not Active
Cc1ccc(N(CC2=NCCN2)c2cccc(O)c2)cc1 [PHENTOLAMINE],Not Active,Not Active
CC1(C)O[C@@H]2C[C@H]3[C@@H]4CCC5=CC(=O)CC[C@]5(C)[C@@]4(F)[C@@H](O)C[C@]3(C)[C@]2(C(=O)CCl)O1 [HALCINONIDE],Not Active,Not Active
NC(=O)N1c2ccccc2CCc2ccccc21,Not Active,Not Active
CC(C)C(Br)C(=O)NC(N)=O (stereo unspecified) [BROMISOVALUM],Not Active,Not Active

# Molecular target: Platelet-activating factor receptor (Homo sapiens, UniProt P25105); also: in other assays of this panel Not Active means under 50% inhibition at 10 µM
# Sequence (P25105 whole entry): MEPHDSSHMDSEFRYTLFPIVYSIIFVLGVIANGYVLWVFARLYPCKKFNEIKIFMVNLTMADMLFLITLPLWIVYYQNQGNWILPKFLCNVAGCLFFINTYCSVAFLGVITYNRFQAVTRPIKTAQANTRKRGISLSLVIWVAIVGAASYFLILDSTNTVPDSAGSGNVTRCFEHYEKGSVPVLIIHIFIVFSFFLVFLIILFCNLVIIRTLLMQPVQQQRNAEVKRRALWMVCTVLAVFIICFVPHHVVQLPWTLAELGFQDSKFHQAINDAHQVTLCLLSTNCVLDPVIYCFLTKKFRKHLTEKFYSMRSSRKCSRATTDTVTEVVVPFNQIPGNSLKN
# Assay type: tissue-based
# Details: not given
row,SMILES,IC50
1,CN(Cc1ccc(C(C)(C)C)cc1)Cc1cccc2ccccc12 [BUTENAFINE],Not Active
2,Sc1ncnc2nc[nH]c12 [MERCAPTOPURINE ANHYDROUS],Not Active
3,Nc1nc2c(ncn2COCCO)c(=O)[nH]1 [ACYCLOVIR],Not Active
4,c1ccc2c(c1)c1cccc3ccc4cccc2c4c31 [BENZO[E]PYRENE],Not Active
5,O=C(O)CCCc1ccc(N(CCCl)CCCl)cc1 [CHLORAMBUCIL],Not Active
6,Cc1ccc(N(CC2=NCCN2)c2cccc(O)c2)cc1 [PHENTOLAMINE],Not Active
7,CC1(C)O[C@@H]2C[C@H]3[C@@H]4CCC5=CC(=O)CC[C@]5(C)[C@@]4(F)[C@@H](O)C[C@]3(C)[C@]2(C(=O)CCl)O1 [HALCINONIDE],Not Active
8,NC(=O)N1c2ccccc2CCc2ccccc21,Not Active
9,CC(C)C(Br)C(=O)NC(N)=O (stereo unspecified) [BROMISOVALUM],Not Active

# Molecular target: T1, Caspase-1 (Homo sapiens, UniProt P29466);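 also: Caspase-1 enzyme inhibition assay with a peptide substrate; in other assays of this panel Not Active means under 50% inhibition at 10 µM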
# T1 sequence (P29466 whole entry): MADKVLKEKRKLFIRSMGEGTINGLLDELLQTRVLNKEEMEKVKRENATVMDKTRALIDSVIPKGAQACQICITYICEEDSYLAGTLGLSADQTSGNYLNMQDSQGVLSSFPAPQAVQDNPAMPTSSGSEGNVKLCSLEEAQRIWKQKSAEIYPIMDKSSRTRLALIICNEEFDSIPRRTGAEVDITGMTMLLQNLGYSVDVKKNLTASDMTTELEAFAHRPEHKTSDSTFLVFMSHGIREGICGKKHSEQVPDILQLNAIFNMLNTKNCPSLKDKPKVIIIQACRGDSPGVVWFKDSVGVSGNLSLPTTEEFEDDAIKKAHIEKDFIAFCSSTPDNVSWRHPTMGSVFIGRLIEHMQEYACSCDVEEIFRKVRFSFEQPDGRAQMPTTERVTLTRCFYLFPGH
# Design: species or system Escherichia coli
# Details: not given
row,SMILES,IC50
1,CN(Cc1ccc(C(C)(C)C)cc1)Cc1cccc2ccccc12 [BUTENAFINE],Not Active
2,Sc1ncnc2nc[nH]c12 [MERCAPTOPURINE ANHYDROUS],Not Active
3,Nc1nc2c(ncn2COCCO)c(=O)[nH]1 [ACYCLOVIR],Not Active
4,c1ccc2c(c1)c1cccc3ccc4cccc2c4c31 [BENZO[E]PYRENE],Not Active
5,O=C(O)CCCc1ccc(N(CCCl)CCCl)cc1 [CHLORAMBUCIL],Not Active
6,Cc1ccc(N(CC2=NCCN2)c2cccc(O)c2)cc1 [PHENTOLAMINE],Not Active
7,CC1(C)O[C@@H]2C[C@H]3[C@@H]4CCC5=CC(=O)CC[C@]5(C)[C@@]4(F)[C@@H](O)C[C@]3(C)[C@]2(C(=O)CCl)O1 [HALCINONIDE],Not Active
8,NC(=O)N1c2ccccc2CCc2ccccc21,Not Active
9,CC(C)C(Br)C(=O)NC(N)=O (stereo unspecified) [BROMISOVALUM],Not Active

# Molecular target: T2, 5-hydroxytryptamine receptor 1A (Rattus norvegicus, UniProt P19327); also: in other assays of this panel Not Active means under 50% inhibition at 10 µM
# T2 sequence (P19327 whole entry): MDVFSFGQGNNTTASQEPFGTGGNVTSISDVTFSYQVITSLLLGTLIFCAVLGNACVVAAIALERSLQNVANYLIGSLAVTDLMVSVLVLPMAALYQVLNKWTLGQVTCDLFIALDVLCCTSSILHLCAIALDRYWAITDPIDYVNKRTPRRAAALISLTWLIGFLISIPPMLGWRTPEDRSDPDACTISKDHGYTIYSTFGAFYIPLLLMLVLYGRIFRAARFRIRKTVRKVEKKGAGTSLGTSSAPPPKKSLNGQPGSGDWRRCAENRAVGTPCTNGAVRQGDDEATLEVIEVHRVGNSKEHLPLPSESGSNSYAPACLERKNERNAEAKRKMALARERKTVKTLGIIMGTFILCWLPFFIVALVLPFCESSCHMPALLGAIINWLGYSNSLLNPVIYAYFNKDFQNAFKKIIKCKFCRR
# Assay type: cell membranes, CHO-K1, Membrane
# Details: cho-k1
row,SMILES,IC50
1,CN(Cc1ccc(C(C)(C)C)cc1)Cc1cccc2ccccc12 [BUTENAFINE],Not Active
2,Sc1ncnc2nc[nH]c12 [MERCAPTOPURINE ANHYDROUS],Not Active
3,Nc1nc2c(ncn2COCCO)c(=O)[nH]1 [ACYCLOVIR],Not Active
4,c1ccc2c(c1)c1cccc3ccc4cccc2c4c31 [BENZO[E]PYRENE],Not Active
5,O=C(O)CCCc1ccc(N(CCCl)CCCl)cc1 [CHLORAMBUCIL],Not Active
6,Cc1ccc(N(CC2=NCCN2)c2cccc(O)c2)cc1 [PHENTOLAMINE],Not Active
7,CC1(C)O[C@@H]2C[C@H]3[C@@H]4CCC5=CC(=O)CC[C@]5(C)[C@@]4(F)[C@@H](O)C[C@]3(C)[C@]2(C(=O)CCl)O1 [HALCINONIDE],Not Active
8,NC(=O)N1c2ccccc2CCc2ccccc21,Not Active
9,CC(C)C(Br)C(=O)NC(N)=O (stereo unspecified) [BROMISOVALUM],Not Active

# Molecular target: T3, Estrogen receptor (Homo sapiens, UniProt P03372); also: in other assays of this panel Not Active means under 50% inhibition at 10 µM
# T3 sequence (P03372 whole entry): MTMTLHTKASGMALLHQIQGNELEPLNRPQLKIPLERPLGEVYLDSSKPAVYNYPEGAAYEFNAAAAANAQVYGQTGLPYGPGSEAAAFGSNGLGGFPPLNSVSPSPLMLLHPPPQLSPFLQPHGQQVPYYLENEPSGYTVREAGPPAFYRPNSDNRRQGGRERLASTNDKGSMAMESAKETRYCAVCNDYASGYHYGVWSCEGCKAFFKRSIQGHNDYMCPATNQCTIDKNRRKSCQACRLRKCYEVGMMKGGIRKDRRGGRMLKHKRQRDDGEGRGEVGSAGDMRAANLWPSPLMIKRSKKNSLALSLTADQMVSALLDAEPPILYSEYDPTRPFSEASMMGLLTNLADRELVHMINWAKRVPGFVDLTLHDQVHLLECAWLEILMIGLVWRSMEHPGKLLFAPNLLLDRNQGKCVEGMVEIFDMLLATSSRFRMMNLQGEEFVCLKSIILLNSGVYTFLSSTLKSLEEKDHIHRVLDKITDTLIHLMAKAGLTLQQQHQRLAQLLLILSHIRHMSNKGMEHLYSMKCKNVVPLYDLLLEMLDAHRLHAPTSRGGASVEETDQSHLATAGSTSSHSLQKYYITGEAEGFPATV
# Details: sf9
row,SMILES,IC50
1,CN(Cc1ccc(C(C)(C)C)cc1)Cc1cccc2ccccc12 [BUTENAFINE],Not Active
2,Sc1ncnc2nc[nH]c12 [MERCAPTOPURINE ANHYDROUS],Not Active
3,Nc1nc2c(ncn2COCCO)c(=O)[nH]1 [ACYCLOVIR],Not Active
4,c1ccc2c(c1)c1cccc3ccc4cccc2c4c31 [BENZO[E]PYRENE],Not Active
5,O=C(O)CCCc1ccc(N(CCCl)CCCl)cc1 [CHLORAMBUCIL],Not Active
6,Cc1ccc(N(CC2=NCCN2)c2cccc(O)c2)cc1 [PHENTOLAMINE],Not Active
7,CC1(C)O[C@@H]2C[C@H]3[C@@H]4CCC5=CC(=O)CC[C@]5(C)[C@@]4(F)[C@@H](O)C[C@]3(C)[C@]2(C(=O)CCl)O1 [HALCINONIDE],Not Active
8,NC(=O)N1c2ccccc2CCc2ccccc21,Not Active
9,CC(C)C(Br)C(=O)NC(N)=O (stereo unspecified) [BROMISOVALUM],Not Active
